Data reported in article PMC12398856, “A GLP-1 analogue optimized for cAMP-biased signaling improves weight loss in obese mice” (Molecular Metabolism, 2025).

Assays:
[1] = biological target: T1, GLP-1R (Homo sapiens, UniProt P43220); assay: BRET-based cAMP production assay (CAMYEL sensor) in GLP-1R+ HEK293T cells; format: cell-based; set-up: host or cells: HEK293T (ATCC), transient transfection with Lipofectamine 2000
Target sequence in this assay (P43220 24-463): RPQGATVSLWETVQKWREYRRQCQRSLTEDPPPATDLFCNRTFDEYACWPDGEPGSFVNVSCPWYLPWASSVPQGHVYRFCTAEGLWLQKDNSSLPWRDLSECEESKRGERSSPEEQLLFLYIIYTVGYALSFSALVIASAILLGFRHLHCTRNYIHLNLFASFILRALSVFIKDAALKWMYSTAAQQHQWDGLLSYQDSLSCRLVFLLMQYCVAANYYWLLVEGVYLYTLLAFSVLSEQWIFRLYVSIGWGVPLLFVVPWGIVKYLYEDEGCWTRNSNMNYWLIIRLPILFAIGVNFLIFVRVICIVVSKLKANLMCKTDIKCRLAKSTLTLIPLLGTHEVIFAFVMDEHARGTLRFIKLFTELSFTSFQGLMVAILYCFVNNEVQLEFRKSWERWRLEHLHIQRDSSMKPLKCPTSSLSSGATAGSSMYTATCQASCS

[2] = biological target: T1, GLP-1R; assay: CRE-Luciferase reporter assay (cAMP production) in BHK cells expressing GLP-1R; format: cell-based; settings: read-out: Log(data) cAMP EC50 (converted)
Target sequence in this assay (P43220 24-463, species assumed): as the sequence (P43220 24-463) above

[3] = biological target: T1, GLP-1R; assay: β-arrestin recruitment (Barr) at GLP-1R, Supplemental Table 1; format: cell-based; settings: negative log10 of EC50; read-out: Log(data) Barr EC50 (converted)
Target sequence in this assay (P43220 24-463, species assumed): as the sequence (P43220 24-463) above

[4] = in vivo; settings: mouse, sc, t1/2

EC50 [1]: 73.9 nM | EC50 [2]: 0.0192 nM | EC50 [3]: 20.1 nM | half-life [4]: 21.7 h
SMILES: CC[C@H](C)[C@H](NC(=O)[C@H](Cc1ccccc1)NC(=O)[C@H](CCC(=O)O)NC(=O)[C@H](CCCNC(=N)N)NC(=O)[C@H](C)NC(=O)[C@H](C)NC(=O)[C@H](CCC(N)=O)NC(=O)[C@H](CCC(=O)O)NC(=O)[C@H](CCC(=O)O)NC(=O)[C@H](CC(C)C)NC(=O)[C@H](Cc1ccc(O)cc1)NC(=O)[C@H](CO)NC(=O)[C@H](CO)NC(=O)[C@@H](NC(=O)[C@H](CC(=O)O)NC(=O)[C@H](CO)NC(=O)[C@@H](NC(=O)[C@H](Cc1ccccc1)NC(=O)[C@@H](NC(=O)CNC(=O)[C@H](CCC(=O)O)NC(=O)[C@H](Cc1c[nH]c2ccccc12)NC(=O)CCc1c[nH]cn1)[C@@H](C)O)[C@@H](C)O)C(C)C)C(=O)N[C@@H](C)C(=O)N[C@@H](Cc1c[nH]c2ccccc12)C(=O)N[C@@H](CC(C)C)C(=O)N[C@H](C(=O)N[C@@H](CCCNC(=N)N)C(=O)NCC(=O)N[C@@H](CCCNC(=N)N)C(=O)N[C@@H](CCCCNC(=O)COCCOCCNC(=O)COCCOCCNC(=O)CC[C@H](NC(=O)CCCCCCCCCCCCCCCCC(=O)O)C(=O)O)C(=O)O)C(C)C [NNC5840]
